Measured values from patent US20230174584A1, “Antibiotic Compounds” (priority 2019, published 2023).
Values after ≈ are worked out from the molar mass of the structure shown.

Assays:
[1] = tested on: panel of 31 vancomycin-resistant E. faecium strains; assay: MIC assay, MIC50/MIC90 over panel; type: cell-based, Enterococcus faecium; conditions: panel of 31 vancomycin-resistant E. faecium strains
Description: (§1) The antibacterial activity of the compounds was tested against a panel of bacteria, including Gram-positive bacteria (S. aureus ATCC29213, S. aureus USA300, S. aureus LIM-2, NR-45881, S. aureus HIP13419, NR-46413, E. faecium E155, E. faecium E7314, E. faecium E980, E. faecalis E1246, E. faecalis E7406 and S. pneumonia 153). The antibacterial activity of the compounds was further tested against S. aureus NY-155, NR-46236, S. aureus HIP12864, NR-46074, S. aureus 880 (BR-VRSA), NR-49120, E. faecalis E1246, E. faecalis E7604, as well as some Gram-negative bacteria (Escherichia coli and Klebsiella pneumoniae). Minimum inhibitory concentrations (MICs) in μg/mL were performed according to the CLSI guidelines. From glycerol stocks, bacterial strains were cultured on blood agar plates and incubated at 37° C. for 18 h. A single colony was transferred to tryptic soy broth (TSB) with 0.002% polysorbate 80 (p80). For the Enterococcus, VISA and VRSA strains, the cultures were grown at 37° C. until the optical density of the suspension reached a level equivalent to the 0.5 McFarland standard. The bacterial suspensions were diluted in TSB with 0.002% p80 to reach a bacterial cell density of 10^6 CFU/mL. In case of the other (vancomycin-sensitive) S. aureus strains, the direct colony suspension method was used. For these strains, after transfer of the colonies to TSB with 0.002% p80, they were immediately diluted to 10^6 CFU/mL, instead of incubated prior to this dilution. In the case of S. pneumonia, direct colony suspension was used by immediately suspending multiple colonies from fresh blood agar plates in TSB+0.002% p80 to an OD600 of 0.5 and subsequent dilution to 10^6 CFU mL^−1 in TSB+0.002% p80+5% lysed horse blood. Antibiotic dilutions for this strains were also made in TSB+0.002% p80+5% lysed horse blood. Both agar and microplates containing S. pneumonia were incubated at 37° C. with 5% CO2 for 24 h with constant shaking (600 rpm). […] The cultures were grown to exponential phase (OD600=0.5) at 37° C. […] In polypropylene 96-well microtiter plates, test compounds were added in biological triplicates and serial diluted 2-fold by transfer and mixing from one well to the next to achieve a final volume of 50 μL per well. An equal volume of bacterial suspension (10^6 CFU mL^−1) was added to the wells. The plates were sealed with breathable membranes and incubated at 37° C. for 24 h with constant shaking (600 rpm). In polypropylene microtiter plates, 100 μL of the test compounds was added to the first row in biological triplicates, and 50 μL of media was added to the other wells. The compounds were subjected to serial dilution by transfer and mixing of 50 μL from one well to the next. Subsequently, 50 μL of bacterial suspension (10^6 CFU/mL) was added to the wells. The plates were sealed with breathable membranes and incubated at 37° C. for 24 h with constant shaking (600 rpm). Positive growth control consisted of wells with bacterial suspension and without antibiotic. Negative growth control consisted of solely media without bacterial suspension or antibiotic. The MICs were determined from the median of a minimum of triplicates.

[2] = tested on: S. aureus HIP13419, NR-46413; assay: microbe, parasite or virus in culture; type: cell-based, Staphylococcus aureus; conditions: S. aureus HIP13419, NR-46413 VRSA
Description: as §1

[3] = tested on: S. aureus USA300; assay: microbe, parasite or virus in culture; type: cell-based, Staphylococcus aureus
Description: as §1

[4] = tested on: E. faecium E1441; assay: MIC assay; type: cell-based, Enterococcus faecium; conditions: E. faecium E1441, VanA
[5] = tested on: E. faecium E1130; assay: MIC assay; type: cell-based, Enterococcus faecium; conditions: E. faecium E1130, VanA
How it was run: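 MICs (μg/mL) were read after 24 h incubation at 37 °C and taken as the median of at least three replicates. Compounds were serially diluted twofold in TSB containing 0.002% polysorbate 80 and inoculated with an equal volume of bacteria at 10^6 CFU/mL.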

[6] = tested on: S. aureus NY-155, NR-46236; assay: MIC assay; type: cell-based, Staphylococcus aureus; conditions: S. aureus NY-155, NR-46236 MRSA
Description: as §1

[7] = tested on: S. aureus ATCC29213; assay: MIC assay; type: cell-based, Staphylococcus aureus; conditions: S. aureus ATCC29213 MSSA
Description: as §1

[8] = tested on: S. aureus LIM-2, NR-25881; assay: MIC assay; type: cell-based, Staphylococcus aureus; conditions: S. aureus LIM-2, NR-25881 VISA
Description: as §1

[9] = tested on: S. aureus 880 (BR-VRSA), NR-49120; assay: MIC assay; type: cell-based, Staphylococcus aureus; conditions: S. aureus 880, NR-49120 VRSA
Description: as §1

[10] = tested on: S. aureus HIP12864, NR-46074; assay: MIC assay; type: cell-based, Staphylococcus aureus; conditions: S. aureus HIP12864, NR-46074 VISA
Description: as §1

[11] = tested on: MRSA USA300; assay: MIC assay in the presence of sheep serum; type: cell-based, Staphylococcus aureus; conditions: MRSA USA300, TSB + 0.002% p80 + 50% sheep serum
Description: as §1
The activity of the compounds was further assessed against MRSA USA300 strain in the presence of sheep) serum in another MIC assay. The cultures that grew in the presence of serum used TSB+0.002% P80+50% sheep serum as growth media, as opposed to normal MICs done in only TSB+0.002% P80.

[12] = tested on: E. faecium E0338; assay: MIC assay; type: cell-based, Enterococcus faecium; conditions: E. faecium E0338, VanA
[13] = tested on: E. faecalis E7604; assay: microbe, parasite or virus in culture; type: cell-based, Enterococcus faecalis; conditions: E. faecalis E7604 VRE (vanB)
Description: as §1

[14] = tested on: E. faecalis E7406; assay: microbe, parasite or virus in culture; type: cell-based, Enterococcus faecalis; conditions: E. faecalis E7406 VRE (VanB)
Description: as §1

[15] = tested on: E. faecium E7314; assay: microbe, parasite or virus in culture; type: cell-based, Enterococcus faecium
Description: as §1

[16] = tested on: E. faecium E155; assay: microbe, parasite or virus in culture; type: cell-based, Enterococcus faecium
Description: as §1

[17] = E. faecium E7314, VanB (Table 10)
[18] = E. faecium E155, VanA (Table 10)

Compound | MIC50 [1] | MIC90 [1] | MIC [2] | MIC ([3]; MRSA USA300, TSB + 0.002% p80) | MIC ([3]; S. aureus USA300 MRSA) | MIC [4] | MIC [5] | MIC [6] | MIC [7] | MIC [8] | MIC [9] | MIC [10] | MIC [11] | MIC [12] | MIC [13] | MIC [14] | MIC [15, 17] | MIC ([15]; E. faecium E7314 VRE (VanB)) | MIC [16, 18] | MIC ([16]; E. faecium E155 VRE (VanA))
CCCCCCCCNC(N)=Nc1ccc(CN[C@@]2(C)C[C@H](O[C@H]3[C@H](Oc4c5cc6cc4Oc4ccc(cc4Cl)[C@@H](O)[C@@H](NC(=O)[C@@H](CC(C)C)NC)C(=O)N[C@@H](CC(N)=O)C(=O)N[C@H]6C(=O)N[C@H]4C(=O)N[C@H](C(=O)N[C@H](C(=O)O)c6cc(O)cc(O)c6-c6cc4ccc6O)[C@H](O)c4ccc(c(Cl)c4)O5)O[C@H](CO)[C@@H](O)[C@@H]3O)O[C@@H](C)[C@H]2O)cc1 [Compound 6] | 0.5 µg/mL (≈ 293 nM) | 4 µg/mL (≈ 2340 nM) | 0.5 µg/mL (≈ 293 nM) | ≤8 ng/mL | ≤7.812 ng/mL | 2 µg/mL (≈ 1170 nM) | ≤8 ng/mL | ≤8 ng/mL | ≤0.007812 µg/mL | ≤8 ng/mL | 2 µg/mL (≈ 1170 nM) | ≤8 ng/mL | 0.063 µg/mL | 2 µg/mL (≈ 1170 nM) | ≤8 ng/mL | ≤7.812 ng/mL | ≤8 ng/mL | ≤7.812 ng/mL | 1 µg/mL (≈ 585 nM) | 1 µg/mL (≈ 585 nM)
CCCCCCCCCNC(N)=Nc1ccc(CN[C@@]2(C)C[C@H](O[C@H]3[C@H](Oc4c5cc6cc4Oc4ccc(cc4Cl)[C@@H](O)[C@@H](NC(=O)[C@@H](CC(C)C)NC)C(=O)N[C@@H](CC(N)=O)C(=O)N[C@H]6C(=O)N[C@H]4C(=O)N[C@H](C(=O)N[C@H](C(=O)O)c6cc(O)cc(O)c6-c6cc4ccc6O)[C@H](O)c4ccc(c(Cl)c4)O5)O[C@H](CO)[C@@H](O)[C@@H]3O)O[C@@H](C)[C@H]2O)cc1 [Compound 7] | 0.125 µg/mL (≈ 72.6 nM) | 1 µg/mL (≈ 580 nM) | 0.125 µg/mL (≈ 72.6 nM) | ≤8 ng/mL | ≤7.812 ng/mL | 1 µg/mL (≈ 580 nM) | ≤8 ng/mL | ≤8 ng/mL | 0.01562 µg/mL (≈ 9.07 nM) | ≤8 ng/mL | 0.5 µg/mL (≈ 290 nM) | ≤8 ng/mL | 0.063 µg/mL | 0.5 µg/mL (≈ 290 nM) | ≤8 ng/mL | ≤7.812 ng/mL | ≤8 ng/mL | ≤7.812 ng/mL | 0.5 µg/mL (≈ 290 nM) | 0.5 µg/mL (≈ 290 nM)
